Measured values as given in paper PMC6499206, “Quantification of Volatile Metabolites Derived From Garlic (Allium sativum) in Human Urine” (Frontiers in Nutrition, 2019).

Assay: Quantification of garlic-derived metabolites in human urine after ingestion of 3 g raw garlic (SIDA, SAFE, HRGC-MS / HRGC-GC-MS)
Format: in vivo
Details: for metabolite concentration in urine / metabolite concentration in urine, creatinine-normalized: 3 g raw garlic
Text: Human urine samples were obtained from 18 volunteers (age 22–38 years, mean 27 years; 11 females, 7 males); thereby, one volunteer conducted the whole experimental series twice. At the time of examination, volunteers reported no known illness that might have potentially influenced the metabolism or the excretion of urine. The test persons were instructed to avoid foods that were rich in sulfur-containing substances at the testing day as well as 2 days preceding the testing day, namely garlic, onion, wild garlic, chives, cabbage, and leek, and were only allowed to consume the garlic sample provided in the course of the experiments. Additionally, subjects were asked to keep records of the food (including food supplements) and beverages they consumed during these 3 testing days. Generally, the overall panelists' requirements were in accordance with our previous studies ([5], [16]).
On the sampling day, the outer garlic cloves of a whole garlic bulb were peeled and cut into ~3 mm cubes by using a garlic cutter (Genius GmbH, Limburg/Lahn, Germany). Subsequently these cubes were thoroughly mixed and aliquoted into 3 g portions. Three to four test persons conducted the experiment at the same day. Each test person was asked to ingest a garlic portion of 3 g. In total, eight consecutive urine samples were provided by each test person, comprising one whole urine set. The samples were collected in sterile brown glass bottles, with sampling times as follows: one sample was provided directly prior to garlic consumption. The series of the second to eighth sample was then obtained at about 0.5, 1, 2, 4, 6, 8, and 24 h after garlic consumption, respectively. Between the first urine sample (prior to garlic consumption) and the seventh urine sample (8 h after garlic consumption) test persons only spent urine at the specific time points mentioned before. Another sample was provided at the next morning (24 h after garlic consumption). Between the samples provided 8 and 24 h after garlic consumption no urine was collected. All samples were immediately placed into a −80°C freezer and were kept frozen until further analysis.
The samples of each set were termed according to their sampling time. The following list provides the time intervals that are related to the respective sample name: • - pre: before garlic consumption • - 0.5 h post: 0.4–0.8 h after garlic consumption • - 1 h post: 0.9–1.3 h after garlic consumption • - 2 h post: 1.8 h−2.2 h after garlic consumption • - 4 h post: 3.8–4.4 h after garlic consumption • - 6 h post: 5.8–6.4 h after garlic consumption • - 8 h post: 7.8–8.4 h after garlic consumption • - 24 h post: 23.8–25.6 h after garlic consumption
A creatinine kit (Labor+Technik Eberhard Lehmann GmbH, Berlin, Germany) was used to determine the creatinine content in each urine sample. The determination principle of this kit is based on the reaction of creatinine with picric acid under basic conditions (Jaffé reaction). The formed complex was detected photometrically at a wavelength of 492 nm.
For quantification purposes, the deuterated standards ^2H3-AMS, ^2H3-AMSO, and ^2H3-AMSO2 were added to the sample and stirred for 10 min. Subsequently, DCM was added in a ratio of 1:2 (DCM/human urine; v/v) and this solution was stirred for further 30 min at room temperature. To isolate the volatile fraction from the urine samples we then applied SAFE-distillation ([17]), thereby distilling the respective samples at 50°C. After completion of the distillation process, 10 mL of DCM were applied in each case to rinse the SAFE apparatus and to ensure complete transition of the volatile compounds. This process was repeated with another 10 mL of DCM. After thawing, the obtained aqueous distillate phase was extracted three times with 25 mL DCM. The organic phases were combined, dried over anhydrous Na2SO4 and concentrated to a total volume of 100 μL by means of Vigreux distillation and subsequent micro-distillation at 50°C. […]

metabolite concentration in urine (U I, 0.5 h post (0.55 h)): 0.9 µg/kg
metabolite concentration in urine, creatinine-normalized (U I, 0.5 h post (0.55 h)): 0.1 µg/mmol creatinine
metabolite concentration in urine (U I, 1 h post (1.03 h)): 0.7 µg/kg
metabolite concentration in urine, creatinine-normalized (U I, 1 h post (1.03 h)): 0.8 µg/mmol creatinine
metabolite concentration in urine (U I, 2 h post (2.05 h)): 1.7 µg/kg
metabolite concentration in urine, creatinine-normalized (U I, 2 h post (2.05 h)): 0.8 µg/mmol creatinine
metabolite concentration in urine (U I, 4 h post (4.05 h)): 1.6 µg/kg
metabolite concentration in urine, creatinine-normalized (U I, 4 h post (4.05 h)): 0.2 µg/mmol creatinine
metabolite concentration in urine (U I, 6 h post (6.05 h)): 1.5 µg/kg
metabolite concentration in urine, creatinine-normalized (U I, 6 h post (6.05 h)): 0.2 µg/mmol creatinine
metabolite concentration in urine (U I, 8 h post (8.05 h)): 0.7 µg/kg
metabolite concentration in urine, creatinine-normalized (U I, 8 h post (8.05 h)): 0.1 µg/mmol creatinine
metabolite concentration in urine (U I, 24 h post (25.55 h)): traces^1
metabolite concentration in urine, creatinine-normalized (U I, 24 h post (25.55 h)): traces^1
metabolite concentration in urine (U I, pre (-0.03 h)): < LOD^1
metabolite concentration in urine, creatinine-normalized (U I, pre (-0.03 h)): < LOD^1
metabolite concentration in urine (U II, 0.5 h post (0.50 h)): 0.5 µg/kg
metabolite concentration in urine, creatinine-normalized (U II, 0.5 h post (0.50 h)): 0.1 µg/mmol creatinine
metabolite concentration in urine (U II, 1 h post (1.00 h)): 0.9 µg/kg
metabolite concentration in urine, creatinine-normalized (U II, 1 h post (1.00 h)): 0.3 µg/mmol creatinine
metabolite concentration in urine (U II, 2 h post (2.00 h)): 0.5 µg/kg
metabolite concentration in urine, creatinine-normalized (U II, 2 h post (2.00 h)): 0.4 µg/mmol creatinine
metabolite concentration in urine (U II, 4 h post (4.00 h)): 0.7 µg/kg
metabolite concentration in urine, creatinine-normalized (U II, 4 h post (4.00 h)): 0.1 µg/mmol creatinine
metabolite concentration in urine (U II, 6 h post (6.00 h)): 0.4 µg/kg
metabolite concentration in urine, creatinine-normalized (U II, 6 h post (6.00 h)): 0.04 µg/mmol creatinine
metabolite concentration in urine (U II, 8 h post (8.00 h)): 0.2 µg/kg
metabolite concentration in urine, creatinine-normalized (U II, 8 h post (8.00 h)): 0.02 µg/mmol creatinine
metabolite concentration in urine (U II, 24 h post (24.12 h)): traces^1
metabolite concentration in urine, creatinine-normalized (U II, 24 h post (24.12 h)): traces^1
metabolite concentration in urine (U II, pre (-0.13 h)): < LOD^1
metabolite concentration in urine, creatinine-normalized (U II, pre (-0.13 h)): < LOD^1
metabolite concentration in urine (U III, 0.5 h post (0.53 h)): 0.6 µg/kg
metabolite concentration in urine, creatinine-normalized (U III, 0.5 h post (0.53 h)): 0.3 µg/mmol creatinine
metabolite concentration in urine (U III, 1 h post (1.07 h)): 0.6 µg/kg
metabolite concentration in urine, creatinine-normalized (U III, 1 h post (1.07 h)): 0.8 µg/mmol creatinine
metabolite concentration in urine (U III, 2 h post (2.18 h)): 1.2 µg/kg
metabolite concentration in urine, creatinine-normalized (U III, 2 h post (2.18 h)): 0.7 µg/mmol creatinine
metabolite concentration in urine (U III, 4 h post (4.35 h)): 0.8 µg/kg
metabolite concentration in urine, creatinine-normalized (U III, 4 h post (4.35 h)): 0.3 µg/mmol creatinine
metabolite concentration in urine (U III, 6 h post (6.35 h)): 0.6 µg/kg
metabolite concentration in urine, creatinine-normalized (U III, 6 h post (6.35 h)): 0.1 µg/mmol creatinine
metabolite concentration in urine (U III, 8 h post (8.43 h)): 0.4 µg/kg
metabolite concentration in urine, creatinine-normalized (U III, 8 h post (8.43 h)): 0.1 µg/mmol creatinine
metabolite concentration in urine (U III, 24 h post (23.90 h)): traces^1
metabolite concentration in urine, creatinine-normalized (U III, 24 h post (23.90 h)): traces^1
metabolite concentration in urine (U III, pre (-0.03 h)): traces^1
metabolite concentration in urine, creatinine-normalized (U III, pre (-0.03 h)): traces^1
metabolite concentration in urine (U IV, 0.5 h post (0.55 h)): 0.7 µg/kg
metabolite concentration in urine, creatinine-normalized (U IV, 0.5 h post (0.55 h)): 0.1 µg/mmol creatinine
metabolite concentration in urine (U IV, 1 h post (1.05 h)): 0.7 µg/kg
metabolite concentration in urine, creatinine-normalized (U IV, 1 h post (1.05 h)): 0.5 µg/mmol creatinine
metabolite concentration in urine (U IV, 2 h post (2.12 h)): 0.7 µg/kg
metabolite concentration in urine, creatinine-normalized (U IV, 2 h post (2.12 h)): 0.4 µg/mmol creatinine
metabolite concentration in urine (U IV, 4 h post (4.05 h)): 0.8 µg/kg
metabolite concentration in urine, creatinine-normalized (U IV, 4 h post (4.05 h)): 0.2 µg/mmol creatinine
metabolite concentration in urine (U IV, 6 h post (6.08 h)): 0.6 µg/kg
metabolite concentration in urine, creatinine-normalized (U IV, 6 h post (6.08 h)): 0.04 µg/mmol creatinine
metabolite concentration in urine (U IV, 8 h post (8.05 h)): 0.3 µg/kg
metabolite concentration in urine, creatinine-normalized (U IV, 8 h post (8.05 h)): 0.1 µg/mmol creatinine
metabolite concentration in urine (U IV, 24 h post (24.03 h)): 0.5 µg/kg
metabolite concentration in urine, creatinine-normalized (U IV, 24 h post (24.03 h)): 0.1 µg/mmol creatinine
metabolite concentration in urine (U IV, pre (-0.05 h)): < LOD^1
metabolite concentration in urine, creatinine-normalized (U IV, pre (-0.05 h)): < LOD^1
metabolite concentration in urine (U IX, 0.5 h post (0.67 h)): 1.0 µg/kg
metabolite concentration in urine, creatinine-normalized (U IX, 0.5 h post (0.67 h)): 0.9 µg/mmol creatinine
metabolite concentration in urine (U IX, 1 h post (1.17 h)): 1.5 µg/kg
metabolite concentration in urine, creatinine-normalized (U IX, 1 h post (1.17 h)): 1.4 µg/mmol creatinine
metabolite concentration in urine (U IX, 2 h post (1.83 h)): 1.4 µg/kg
metabolite concentration in urine, creatinine-normalized (U IX, 2 h post (1.83 h)): 1.2 µg/mmol creatinine
metabolite concentration in urine (U IX, 4 h post (4.17 h)): 2.5 µg/kg
metabolite concentration in urine, creatinine-normalized (U IX, 4 h post (4.17 h)): 0.5 µg/mmol creatinine
metabolite concentration in urine (U IX, 6 h post (6.08 h)): 1.7 µg/kg
metabolite concentration in urine, creatinine-normalized (U IX, 6 h post (6.08 h)): 0.5 µg/mmol creatinine
metabolite concentration in urine (U IX, 8 h post (8.08 h)): 0.8 µg/kg
metabolite concentration in urine, creatinine-normalized (U IX, 8 h post (8.08 h)): 0.1 µg/mmol creatinine
metabolite concentration in urine (U IX, 24 h post (24.00 h)): traces^1
metabolite concentration in urine, creatinine-normalized (U IX, 24 h post (24.00 h)): traces^1
metabolite concentration in urine (U IX, pre (-0.08 h)): < LOD^1
metabolite concentration in urine, creatinine-normalized (U IX, pre (-0.08 h)): < LOD^1
metabolite concentration in urine (U V, 0.5 h post (0.50 h)): 0.5 µg/kg
metabolite concentration in urine, creatinine-normalized (U V, 0.5 h post (0.50 h)): 0.7 µg/mmol creatinine
metabolite concentration in urine (U V, 1 h post (1.00 h)): 0.7 µg/kg
metabolite concentration in urine, creatinine-normalized (U V, 1 h post (1.00 h)): 0.8 µg/mmol creatinine
metabolite concentration in urine (U V, 2 h post (2.00 h)): 0.7 µg/kg
metabolite concentration in urine, creatinine-normalized (U V, 2 h post (2.00 h)): 0.8 µg/mmol creatinine
metabolite concentration in urine (U V, 4 h post (4.00 h)): 0.9 µg/kg
metabolite concentration in urine, creatinine-normalized (U V, 4 h post (4.00 h)): 0.3 µg/mmol creatinine
metabolite concentration in urine (U V, 6 h post (6.00 h)): 0.7 µg/kg
metabolite concentration in urine, creatinine-normalized (U V, 6 h post (6.00 h)): 0.1 µg/mmol creatinine
metabolite concentration in urine (U V, 8 h post (8.00 h)): 0.3 µg/kg
metabolite concentration in urine, creatinine-normalized (U V, 8 h post (8.00 h)): 0.2 µg/mmol creatinine
metabolite concentration in urine (U V, 24 h post (24.00 h)): traces^1
metabolite concentration in urine, creatinine-normalized (U V, 24 h post (24.00 h)): traces^1
metabolite concentration in urine (U V, pre (-0.05 h)): < LOD^1
metabolite concentration in urine, creatinine-normalized (U V, pre (-0.05 h)): < LOD^1
metabolite concentration in urine (U VI, 0.5 h post (0.50 h)): 1.1 µg/kg
metabolite concentration in urine, creatinine-normalized (U VI, 0.5 h post (0.50 h)): 0.5 µg/mmol creatinine
metabolite concentration in urine (U VI, 1 h post (1.00 h)): 0.7 µg/kg
metabolite concentration in urine, creatinine-normalized (U VI, 1 h post (1.00 h)): 0.6 µg/mmol creatinine
metabolite concentration in urine (U VI, 2 h post (2.00 h)): 1.0 µg/kg
metabolite concentration in urine, creatinine-normalized (U VI, 2 h post (2.00 h)): 0.9 µg/mmol creatinine
metabolite concentration in urine (U VI, 4 h post (4.00 h)): 1.2 µg/kg
metabolite concentration in urine, creatinine-normalized (U VI, 4 h post (4.00 h)): 0.3 µg/mmol creatinine
metabolite concentration in urine (U VI, 6 h post (6.00 h)): 0.9 µg/kg
metabolite concentration in urine, creatinine-normalized (U VI, 6 h post (6.00 h)): 0.2 µg/mmol creatinine
metabolite concentration in urine (U VI, 8 h post (8.00 h)): 0.5 µg/kg
metabolite concentration in urine, creatinine-normalized (U VI, 8 h post (8.00 h)): 0.1 µg/mmol creatinine
metabolite concentration in urine (U VI, 24 h post (24.17 h)): traces^1
metabolite concentration in urine, creatinine-normalized (U VI, 24 h post (24.17 h)): traces^1
metabolite concentration in urine (U VI, pre (-0.05 h)): < LOD^1
metabolite concentration in urine, creatinine-normalized (U VI, pre (-0.05 h)): < LOD^1
metabolite concentration in urine (U VII, 0.5 h post (0.50 h)): 0.6 µg/kg
metabolite concentration in urine, creatinine-normalized (U VII, 0.5 h post (0.50 h)): 0.5 µg/mmol creatinine
metabolite concentration in urine (U VII, 1 h post (1.08 h)): 1.3 µg/kg
Structure (SMILES): C=CCSC [AMS, allyl methyl sulfide]
concentration in urine compared with human milk (3 g raw garlic in both studies, milk data ref 20): comparable excretion levels in both media
